Reference: patent US7728146B2, “Enzyme inhibitors” (Probiodrug AG, priority 2006, dated 2010)

Experiments:
[1] = molecular target: dipeptidyl peptidase (DP IV) (UniProt P27487); test: Determination of IC50 against DP IV (hydrolysis of Gly-Pro-pNA); assay type: biochemical, porcine kidney or recombinant human; conditions: compounds obtained by preparative synthesis
Method: Determination of IC50 Against DP IV
Substances are screened for inhibition of dipeptidyl peptidase (DP IV) by their ability to inhibit the hydrolysis of the DP IV specific substrate Glycyl-Prolyl-4-Nitroanilide (Gly-Pro-pNA). All compounds are diluted in DMSO and IC50 will be determined with 11 serial dilutions (1:2) starting with an final concentration of 100 μM. The final DMSO concentration in the assay is 5% (v/v). The method was automated using a Tecan Genesis Freedom liquid handler and a Genius Pro (Tecan) microplate reader.
A stock solution of 0.102 M HEPES is prepared. Ionic strength (I=0.32) is adjusted by KCl and pH (pH 7.6) by KOH.
2.16 mM solution of Gly-Pro-pNA in deionized water is prepared.
All samples are dissolved in DMSO preparing a 10 mM stock solution.
DP IV from porcine kidney (pDP IV) or recombinant human DP IV (rhDP IV) is diluted in HEPES buffer to a final activity of approximately 40-50 μU*ml^−1. The DP IV is stored in a cooling rack (4° C.) on the liquid handler.
The assay may becarried out at room temperature using Freedom liquid handler connected with a Genios Pro microplate reader. Each sample is measured in duplicate. Each sample stock solution is prediluted with DMSO in a ratio of 1:5 in a polypropylen 96-well plate. From this predilution 10 serial (1:2) dilutions in DMSO are prepared. 13.5 μl of the 11 DMSO dilutions and DMSO alone are transferred to the measurement microplate (duplicates) and 86.5 μl water, 100 μl HEPES buffer and 50 μl substrate solution are added to each well. The enzymatic reaction is started by addition of 20 μl enzyme solution to each well, and then the microplate is immediately transferred to the microplate reader.
After short mixing (20 s) the release of 4-Nitroanilin (pNA) is monitored at 405 nm for 30 cycles (approx. 18 min).
Post assay calculations are done by the Magellan (Tecan) and Graphit Software. The linear slopes are calculated for each well and averaged for the duplicates. The residue activities are calculated in relation to a sample containing only solvent instead of inhibitor and expressed in %. Residue activities are plotted against the log of inhibitor concentrations and IC50 is calculated by an 4-parameter fitting ranging from 0 to 100%.

[2] = molecular target: T1, DP IV (Homo sapiens, UniProt P27487); test: DP IV inhibition IC50, parallel-synthesis compounds tested directly following synthesis (without purification); assay type: biochemical; parameters: IC50 DP4; other: tested directly following parallel synthesis, without purification; compounds of formula (Ib) from parallel synthesis, tested directly following synthesis; conditions: DP IV inhibition; compounds of formula (Ib) from parallel synthesis, tested directly following synthesis (without purification); read-out: IC50
Method in brief: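 Porcine kidney or recombinant human enzyme (~40-50 μU/ml, HEPES buffer) hydrolysing Gly-Pro-pNA at room temperature, with 5% DMSO final; 11-point 1:2 dilutions from 100 μM final, in duplicate. pNA release read at 405 nm over ~18 min; slopes vs solvent control give residual activity, and IC50 comes from a 4-parameter fit.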

[3] = molecular target: DPII (Homo sapiens, UniProt Q9UHL4); test: DPII assay; assay type: biochemical; conditions: for Selectivity DPII(IC50)/DPIV(Ki): ratio IC50 DPII / Ki DP IV
Method: (§1) Determination of IC50 values for DPII and DP9 are done similarly as described for DP IV.
For DPII instead of the HEPES buffer a 0.2 M sodium acetate buffer pH 5.5 is used. As substrate Gly-Pro-AMC is used in a final concentration of 1 mM.

[4] = system: liver cell carcinoma cell line Hep-G2; test: Cytotoxicity screening and LD50 determination on Hep-G2 (LDH, CytoTox-One); assay type: cell-based; conditions: for Cytotox 100 μM (%) HEPG2 / Viability 100 μM (%) HEP-G2: 24 h; for Cytotox 100 μM (%) HEPG2: LDH activity in cell culture media, lysed untreated cells = 100%; for Viability 100 μM (%) HEP-G2: LDH of lysed cells, untreated control = 100%; for Observed cytotox: Hep-G2, observation of the cells
Method: Cytotoxicity of the compounds may be screened using the liver cell carcinoma cell line Hep-G2.
(§2) After 24 h of cultivation in a 96 well plate (50 000 cells/well) compounds (dissolved in DMSO) are added and cytotoxicity and vitality of the cells are analysed after another 24 h of cultivation using the CytoTox-One Homogenoeous membrane toxicity assay (Promega).
Three concentrations (100 μM, 2 μM, 40 nM) of each compound are analysed in triplicates. The final DMSO concentration was 1%.
(§3) For cytotoxicity the LDH activity in the cell culture media after 24 h of incubation are analysed. The untreated control is set to 0% cytotoxicity. For the 100% value LDH activity of lysed untreated cells are analysed.
(§4) For viability cell culture media are removed from the cells and all cells are lysed using the lysis buffer. LDH activity is determined and untreated control is set to 100% viability.
(§5) For determination of LD50 the liver carcinoma cell line HEP-G2 and the neuroblastoma cell line SY5Y may be used. The effect of 8 serial dilutions of the compounds (highest concentration 1 mM) is investigated as described above.
The cytotoxicity of certain example compounds (in each case prepared by preparative synthesis) was screened using Hep-G2 cells. Compounds were tested in concentrations of 100 μM, 2 μM and 40 nM.

[5] = molecular target: T1, DP IV; test: Ki and inhibition type, DP IV; assay type: biochemical; conditions: compounds obtained by preparative synthesis
Method: Measurement of DP IV activities for Ki determination is carried out as described for IC50. For Ki determination samples were analysed in triplicates. 7 serial dilutions of the inhibitor (range calculated from the IC50 determination) in water are analyzed with 4 serial dilutions of the substrate.
Data are analysed by non-linear regression to the inhibitor equations using Graphit software. Ki-value and inhibition type are determined using the inhibitor equation (competitive, partiell competitive, non-competitive) which gives the best fitting results. […]

[6] = molecular target: DP9 (Homo sapiens, UniProt Q86TI2); test: DP9 assay; assay type: biochemical; conditions: for IC50: Gly Pro-AMC 0.25 mM; for Selectivity DP9(IC50)/DPIV(Ki): ratio IC50 DP9 / Ki DP IV
Method: as §1
For DP9 Gly Pro-AMC is used as substrate in a final concentration of 0.25 mM.

[7] = system: neuroblastoma cell line SY5Y; test: LD50 determination on SY5Y (LDH); assay type: cell-based; conditions: 8 serial dilutions, highest concentration 1 mM
Method: as §2, §3, §4, §5

[8] = sodium acetate buffer pH 5.5, Gly-Pro-AMC 1 mM
[9] = 8 serial dilutions, highest concentration 1 mM

T1 sequence (P27487 whole entry): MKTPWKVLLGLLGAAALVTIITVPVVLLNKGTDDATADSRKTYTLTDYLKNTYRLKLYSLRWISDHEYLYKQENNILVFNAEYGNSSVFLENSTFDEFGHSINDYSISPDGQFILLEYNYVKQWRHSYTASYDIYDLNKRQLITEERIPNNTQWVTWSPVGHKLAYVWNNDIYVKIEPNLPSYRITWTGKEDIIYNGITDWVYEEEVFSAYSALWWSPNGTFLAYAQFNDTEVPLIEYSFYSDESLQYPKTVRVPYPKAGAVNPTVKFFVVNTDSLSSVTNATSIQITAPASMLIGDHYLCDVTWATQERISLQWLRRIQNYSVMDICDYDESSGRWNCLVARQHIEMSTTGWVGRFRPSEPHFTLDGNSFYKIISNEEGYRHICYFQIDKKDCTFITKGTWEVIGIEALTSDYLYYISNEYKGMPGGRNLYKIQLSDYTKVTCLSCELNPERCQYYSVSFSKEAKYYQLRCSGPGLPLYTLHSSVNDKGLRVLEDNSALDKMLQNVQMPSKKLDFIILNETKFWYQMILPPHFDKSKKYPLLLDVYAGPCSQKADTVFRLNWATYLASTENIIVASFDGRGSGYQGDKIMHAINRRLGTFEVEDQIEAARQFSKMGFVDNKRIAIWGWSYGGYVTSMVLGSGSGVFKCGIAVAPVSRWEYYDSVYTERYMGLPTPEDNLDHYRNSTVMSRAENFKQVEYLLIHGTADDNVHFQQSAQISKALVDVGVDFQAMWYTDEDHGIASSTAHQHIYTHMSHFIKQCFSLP
Chain of DP9 (Q86TI2 whole entry, species assumed): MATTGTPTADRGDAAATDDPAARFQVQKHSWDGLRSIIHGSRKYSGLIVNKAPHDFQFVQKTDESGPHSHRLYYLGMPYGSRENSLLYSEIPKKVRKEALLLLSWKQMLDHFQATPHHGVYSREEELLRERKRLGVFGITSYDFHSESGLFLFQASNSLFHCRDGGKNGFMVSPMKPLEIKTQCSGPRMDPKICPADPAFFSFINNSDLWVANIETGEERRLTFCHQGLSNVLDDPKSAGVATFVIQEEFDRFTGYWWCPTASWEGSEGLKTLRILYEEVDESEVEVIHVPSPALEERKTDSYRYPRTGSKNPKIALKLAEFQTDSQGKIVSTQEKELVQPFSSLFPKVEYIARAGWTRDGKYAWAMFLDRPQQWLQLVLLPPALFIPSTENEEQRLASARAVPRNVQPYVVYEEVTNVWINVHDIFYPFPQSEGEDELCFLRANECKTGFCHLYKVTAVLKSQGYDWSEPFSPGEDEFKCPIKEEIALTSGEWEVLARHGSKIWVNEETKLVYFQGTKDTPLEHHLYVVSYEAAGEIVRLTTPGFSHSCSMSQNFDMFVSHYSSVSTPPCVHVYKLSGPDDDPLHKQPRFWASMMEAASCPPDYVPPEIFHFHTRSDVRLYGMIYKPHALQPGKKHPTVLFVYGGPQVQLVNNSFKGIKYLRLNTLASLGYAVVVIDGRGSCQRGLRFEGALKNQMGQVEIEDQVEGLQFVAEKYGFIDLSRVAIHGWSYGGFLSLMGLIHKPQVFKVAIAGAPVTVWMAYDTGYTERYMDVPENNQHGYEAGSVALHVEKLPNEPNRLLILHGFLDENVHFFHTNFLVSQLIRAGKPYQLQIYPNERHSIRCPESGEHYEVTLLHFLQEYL

| Compound | IC50 [1] [nM] | IC50 [2] [nM] | Selectivity DPII(IC50)/DPIV(Ki) [3] | IC50 [3, 8] [nM] | Cytotox 100 μM (%) HEPG2 ([4]; 100 μM) [%] | Viability 100 μM (%) HEP-G2 ([4]; 100 μM) [%] | cytotoxic effects (summary in words) ([4]; 100 μM, Hep-G2) | Ki [5] [nM] | Ki [3] [nM] | Observed cytotox ([4]; 100 μM) | Ki [6] [nM] | IC50 [6] [nM] | Selectivity DP9(IC50)/DPIV(Ki) [6] | IC50 ([3]; values >1e−4 are extrapolated values) [nM] | LD50 Viability SY5Y [7] [mM] | LD50 cytotox SY5Y [7] [mM] | LD50 Viability HEP-G2 [4, 9] [mM] | LD50 cytotox HEP-G2 [4, 9] [mM] |
| --- | --- | --- | --- | --- | --- | --- | --- | --- | --- | --- | --- | --- | --- | --- | --- | --- | --- | --- |
| CC(C)(C)Cn1cnc(-c2ccc(Cl)cc2Cl)c1CN [Example 11b, C-[5-(2,4-dichloro-phenyl)-3-(2,2-dimethyl-propyl)-3H-imidazol-4-yl]-methylamine] | 2580 | 6400 | 1,457 | 83800 | 4.6 | 113.1 | No cytotoxic effects | 57.5 | – | – | – | – | – | – | – | – | – | – |
| NCc1c(-c2ccc(Cl)cc2Cl)ncn1CCc1ccccc1Cl [Example 21b, C-[3-[2-(2-chloro-phenyl)-ethyl]-5-(2,4-dichloro-phenyl)-3H-imidazol-4-yl]-methylamine] | 514 | 1900 | 157 | 4620 | 97.1 | 9.8 | – | 29.4 | 3180 | 100% lysis | 925 | 1280 | 44 | – | – | – | – | – |
| CC(C)(C)CCn1cnc(-c2ccc(Cl)cc2Cl)c1CN [Example 23b, C-[5-(2,4-dichloro-phenyl)-3-(3,3-dimethyl-butyl)-3H-imidazol-4-yl]-methylamine] | 903 | 8200 | – | – | 56.8 | 98.6 | – | 23.6 | – | 50% lysis, 100% | – | 56100 | 2,377 | – | – | – | – | – |
| NCc1c(-c2ccc(Cl)cc2Cl)ncn1CCCCCO [Example 38b, 5-[5-aminomethyl-4-(2,4-dichloro-phenyl)-imidazol-1-yl]-pentan-1-ol] | 848 | 1900 | 1,474 | 60600 | 0 | 106.7 | – | 41.1 | – | – | – | 46500 | 1,131 | – | – | – | – | – |
| NCc1c(-c2ccc(Cl)cc2Cl)ncn1CCCn1ccnc1 [Example 104b, C-[5-(2,4-dichloro-phenyl)-3-(3-imidazol-1-yl-propyl)-3H-imidazol-4-yl]-methylamine] | 408 | 5500 | 9,172 | – | 2.9 | 104.1 | – | 30.2 | – | – | – | 17500 | 579 | 277000 | – | – | – | – |
| NCc1c(-c2ccc(Cl)cc2Cl)ncn1Cc1ccc2c(c1)OCO2 [Example 125b, C-[3-benzo[1,3]dioxol-5-ylmethyl-5-(2,4-dichloro-phenyl)-3H-imidazol-4-yl]-methylamine] | 371 | – | 471 | 17900 | 10.6 | 88.9 | – | 38 | – | – | – | 74700 | 1,966 | – | – | – | – | – |
| NCc1c(-c2ccc(Cl)cc2Cl)ncn1Cc1ccccc1OC(F)(F)F [Example 129b, C-[5-(2,4-dichloro-phenyl)-3-(2-trifluoromethoxy-benzyl)-3H-imidazol-4-yl]-methylamine] | 70 | – | 237 | 1550 | – | – | – | 6.54 | 4420 | – | – | 53200 | 8,135 | – | 0.13 | 0.21 | 0.15 | 0.16 |
